Experimental data from patent US20170334899A1, “AMINO-SUBSTITUTED ISOTHIAZOLES” (Bayer Pharma Aktiengesellschaft, priority 2014, published 2017).

Target: T1, catalytic domain of human Bub1 (amino acids 704-1085) (Homo sapiens, UniProt O43683)
T1 construct: catalytic domain of human Bub1 (amino acids 704-1085); His6 (N); made in house; host or cells: insect cells (Hi5)
Assay: Bub1 kinase assay (TR-FRET)
Assay type: biochemical
Conditions: 10 μM ATP, avg, read-out: Bub1 avg (IC50 [mol/l])
Method in brief: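 Readout is the 665/620 nm TR-FRET ratio from anti-phosphoserine antibody, Eu-labelled anti-mouse IgG and streptavidin-XL665, scaled between no-enzyme and uninhibited controls. Reaction: 1 μM biotinylated peptide, 10 μM ATP, 60 min, 22 °C, after 15 min compound preincubation with His6-Bub1 (704-1085, insect-expressed, ~200 ng/ml).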

T1 sequence (O43683 704-1085): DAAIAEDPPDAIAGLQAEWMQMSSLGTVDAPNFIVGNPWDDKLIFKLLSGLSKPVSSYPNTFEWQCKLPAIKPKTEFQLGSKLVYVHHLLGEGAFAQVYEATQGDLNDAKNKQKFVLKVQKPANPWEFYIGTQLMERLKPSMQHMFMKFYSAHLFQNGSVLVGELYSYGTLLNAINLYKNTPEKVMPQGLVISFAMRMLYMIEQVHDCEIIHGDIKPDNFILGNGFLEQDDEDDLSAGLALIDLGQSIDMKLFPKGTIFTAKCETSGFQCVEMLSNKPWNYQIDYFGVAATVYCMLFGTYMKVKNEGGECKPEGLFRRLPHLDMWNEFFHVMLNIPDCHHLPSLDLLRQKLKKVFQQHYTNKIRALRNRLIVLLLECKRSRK

IC50 [µM]	SMILES
≥ 20	Cc1nsc(Nc2ccc(C#N)cn2)c1C(=O)Nc1ccc(OC2CCCN(CCF)C2)nc1 (stereo not drawn) [Example 38, 5-[(5-Cyanopyridin-2-yl)amino]-N-(6-{[1-(2-fluoroethyl)piperidin-3-yl]oxy}pyridin-3-yl)-3-methyl-1,2-thiazole-4-carboxamide]
≥ 20	Cc1nsc(Nc2ccc(C#N)cn2)c1C(=O)Nc1ccc(OC2CCCN(CC(F)F)C2)nc1 (stereo not drawn) [Example 39, 5-[(5-Cyanopyridin-2-yl)amino]-N-(6-{[1-(2,2-difluoroethyl)piperidin-3-yl]oxy}-pyridin-3-yl)-3-methyl-1,2-thiazole-4-carboxamide]
≥ 20	Cc1nsc(Nc2ccc(C#N)cn2)c1C(=O)Nc1ccc(OC2CCCN(CC(F)(F)F)C2)nc1 (stereo not drawn) [Example 40, 5-[(5-Cyanopyridin-2-yl)amino]-3-methyl-N-(6-{[1-(2,2,2-trifluoroethyl)piperidin-3-yl]oxy}pyridin-3-yl)-1,2-thiazole-4-carboxamide]
≥ 20	Cc1nsc(Nc2cnccn2)c1C(=O)Nc1ccc(OC2CCCN(C(=O)OC(C)(C)C)C2)nc1 (stereo not drawn) [Example 41, tert-Butyl 3-{[5-({[3-methyl-5-(pyrazin-2-ylamino)-1,2-thiazol-4-yl]carbonyl}amino)-pyridin-2-yl]oxy}piperidine-1-carboxylate]

The next lines start with the compound.

SMILES	IC50 [µM]
COCCOc1ccc(NC(=O)c2c(C)nsc2Nc2nc3c(C(F)(F)F)cccc3s2)cc1F [Example 1, N-[3-Fluoro-4-(2-methoxyethoxy)phenyl]-3-methyl-5-{[4-(trifluoromethyl)-1,3-benzothiazol-2-yl]amino}-1,2-thiazole-4-carboxamide]	≥ 20
Cc1nsc(Nc2nc3c(C(F)(F)F)cccc3s2)c1C(=O)Nc1ccc(OCCO)nc1 [Example 2, N-[6-(2-Hydroxyethoxy)pyridin-3-yl]-3-methyl-5-{[4-(trifluoromethyl)-1,3-benzo-thiazol-2-yl]amino}-1,2-thiazole-4-carboxamide]	≥ 20
COCCOc1ccc(NC(=O)c2c(C)nsc2Nc2nc3c(C(F)(F)F)cccc3s2)cn1 [Example 3, N-[6-(2-Methoxyethoxy)pyridin-3-yl]-3-methyl-5-{[4-(trifluoromethyl)-1,3-benzo-thiazol-2-yl]amino}-1,2-thiazole-4-carboxamide]	≥ 20
Cc1nsc(Nc2nc3c(C(F)(F)F)cccc3s2)c1C(=O)Nc1ccc(OCCO)c(F)c1 [Example 4, N-[3-Fluoro-4-(2-hydroxyethoxy)phenyl]-3-methyl-5-{[4-(trifluoromethyl)-1,3-benzothiazol-2-yl]amino}-1,2-thiazole-4-carboxamide]	≥ 20
Cc1nsc(Nc2cnc(C(F)(F)F)cn2)c1C(=O)Nc1ccc(OC2CCN(C(=O)OC(C)(C)C)CC2)nc1 [Example 5, tert-Butyl 4-[(5-{[(3-methyl-5-{[5-(trifluoromethyl)pyrazin-2-yl]amino}-1,2-thiazol-4-yl)carbonyl]amino}pyridin-2-yl)oxy]piperidine-1-carboxylate]	≥ 20
Cc1nsc(Nc2cc(C#N)ccn2)c1C(=O)Nc1ccc(OC2CCCNC2)nc1 (stereo not drawn) [Example 35, 5-[(4-Cyanopyridin-2-yl)amino]-3-methyl-N-[6-(piperidin-3-yloxy)pyridin-3-yl]-1,2-thiazole-4-carboxamide]	≥ 20
Cc1nsc(Nc2ccc(C#N)cn2)c1C(=O)Nc1ccc(OC2CCCN(C(=O)OC(C)(C)C)C2)nc1 (stereo not drawn) [Example 36, tert-Butyl 3-({5-[({5-[(5-cyanopyridin-2-yl)amino]-3-methyl-1,2-thiazol-4-yl}-carbonyl)amino]pyridin-2-yl}oxy)piperidine-1-carboxylate]	≥ 20
Cc1nsc(Nc2ccc(C#N)cn2)c1C(=O)Nc1ccc(OC2CCCNC2)nc1 (stereo not drawn) [Example 37, 5-[(5-Cyanopyridin-2-yl)amino]-3-methyl-N-[6-(piperidin-3-yloxy)pyridin-3-yl]-1,2-thiazole-4-carboxamide]	≥ 20
